This note sets out measurements from patent EP0330025A2, “Antidiabetic composition comprising isocarbacyclin derivative” (TEIJIN LIMITED, priority 1988, dated 1989).

The subject of test [1] is GK rats with spontaneous diabetes. As to the kind of experiment: Test Example 1: measurement of nerve conduction velocity in GK rats with spontaneous diabetes. Type of test: in vivo. Conditions: for Nerve conduction velocity (m/sec) Before administration: baseline before oral administration. The source says:
A test substance, (17S)-17,20-dimethylisocarbacyclin [=(17S)-17,20-dimethyl-9(0)-methano-Δ^6(9α)-prostaglandin I₁] was used to observe any improvement effect on nervous disorder of GK rats with spontaneous diabetes.
(§1) At the test method was to use four groups, i.e., one group of Wistar rats as control, two groups of GK rats with spontaneous diabetes administered by the test substance and one group of the GK rats not administered by the test substance. Before testing, glucose tolerance and nerve conduction velocity were measured. Then the test substance was orally given for 4 weeks (one group at a dose of 30µg/-Kg/day and another group at a dose of 300µg/Kg/day), and the animals were then checked for glucose tolerance and nerve conduction velocity.

Test [2] shares this test system. As to the kind of experiment: Test Example 2: measurement of nerve conduction velocity in GK rats with spontaneous diabetes. Conditions: for Nerve conduction velocity (m/sec) Before administration / Nerve conduction velocity (m/sec) 4 weeks later: GK rats; for Nerve conduction velocity (m/sec) Before administration: baseline before oral administration. The format is in vivo. On the procedure:
as §1
In similar way to Test Example 1, variations in nerve conduction velocity were measured for (17S)-17,20-dimethylisocarbacyclin methyl ester [=(17S)-17,20-dimethyl-9(0)-methano-Δ^6(9α)-prostaglandin I₁ methyl ester as test substance.

[3] abbreviates: 300µg/Kg/day orally for 4 weeks.

On to `CCCC[C@H](C)C[C@H](O)/C=C/[C@@H]1[C@H]2CC(CCCCC(=O)O)=C[C@H]2C[C@H]1O` [(17S)-17,20-dimethylisocarbacyclin, (17S)-17,20-dimethyl-9(0)-methano-Δ^6(9α)-prostaglandin I₁], for which the “Nerve conduction velocity (m/sec) Before administration” value was 33.7 ± 1.2 m/sec in test [1] (30µg/Kg/day group) and 35.0 ± 0.8 m/sec in test [1] (300µg/Kg/day group). Moreover, the “Nerve conduction velocity (m/sec) 4 weeks later” value in test [1] (30µg/Kg/day orally for 4 weeks) is recorded as 40.5 ± 0.8 m/sec; in test [1] (setting [3]), 42.2 ± 0.9 m/sec.
As for `CCCC[C@H](C)C[C@H](O)/C=C/[C@@H]1[C@H]2CC(CCCCC(=O)OC)=C[C@H]2C[C@H]1O` [(17S)-17,20-dimethyl-9(0)-methano-Δ^6(9α)-prostaglandin I₁ methyl ester], the “Nerve conduction velocity (m/sec) Before administration” value was 30.9 ± 1.0 m/sec in test [2] (30µg/Kg/day group) and 32.4 ± 0.7 m/sec in test [2] (300µg/Kg/day group). The “Nerve conduction velocity (m/sec) 4 weeks later” value is 38.1 ± 1.0 m/sec in test [2] (30µg/Kg/day orally for 4 weeks) and 37.5 ± 1.4 m/sec in test [2] (setting [3]). The “Improvements on nerve conduction velocity” value in test [2] (both groups, 30µg/Kg/day and 300µg/Kg/day, after 4 weeks, in comparison with the control group of GK rats) is on record as “Improvements on nerve conduction velocity were observed”.
